Test results reported in patent US20030073218A1, “High affinity inhibitors for target validation and uses thereof” (Princeton University, priority 1999, published 2003).

Key:
[1] = system: Trk family tyrosin kinases; details: reported (89, 90); cited from earlier work
[2] = biological target: cGMP dependent protein kinase; details: reported (89, 90); cited from earlier work
[3] = system: panel of wild-type protein kinases (v-src, Fyn, c-Abl, CAMK IIα, CDK2); test: In vitro inhibition, panel of wild-type protein kinases; assay type: biochemical
[4] = biological target: protein kinase A (Homo sapiens, UniProt P17612); details: reported (89, 90); cited from earlier work
[5] = biological target: T1, wild-type c-Abl (Homo sapiens, UniProt P00519); test: In vitro inhibition by K252a; assay type: biochemical
T1 construct: GST; made in house

[6] = system: S. cerevisiae expressing wild-type Fus3, Fus3-as1, or no Fus3; test: Non-selective cytotoxicity control, mating cultures plated on YPD; assay type: cell-based, Saccharomyces cerevisiae; details: any of the three strains
[7] = biological target: T2, I338G v-Src (Rous sarcoma virus subgroup A, UniProt P00524, DEL77-225/I338G); test: biochemical; assay type: biochemical; details: Table 3; read-out: IC50, 1338G v-Src
T2 construct: screened against the catalytic domain of the target kinase, I338G v-Src; made in house; host or cells: E. coli DH5a, pGEX-KT

[8] = system: wild-type strain (CDC28); test: Yeast growth; assay type: cell-based, Saccharomyces cerevisiae
Method: (§1) Yeast Plasmid and Strain Construction: Media and genetic and microbial techniques were essentially as described (148, 153). All strains were derivatives of W30-3 (ura3-a, leu2-3, 112, trpl-1, his3-11,15, ade2-1, can1-100, GAL+). All strains were grown at 23° C. unless otherwise noted. To create cdc28-as1, the CDC28 coding sequence and 400 bp of 5′-and 386 bp of 3′-flanking DNA was PCR-amplified from genomic DNA and ligated into pRS306 to make pJAU1. The F88G mutation was engineered by oligonucleotide-directed mutagenesis of pJAU1. The plasmid was integrated into the wild-type CDC28 locus following AflII digestion by a pop-in-pop-out strategy as described (148, 153).
as §1, with “To examine the function of Cdc28 in vivo, a yeast strain in which the wild-type copy of CDC28 was replaced by cdc28-as1 was constructed.” for “Yeast Plasmid and Strain Construction:”, “W303 (ura3-1,” for “W30-3 (ura3-a,”, “cdc28-as1 ,” for “cdc28-as1,”, “5′- and” for “5′-and”, “AfII” for “AflII”

[9] = system: cdc28-as1 strain; test: Yeast growth; assay type: cell-based, Saccharomyces cerevisiae
Method: as §1
as §1, with “To examine the function of Cdc28 in vivo, a yeast strain in which the wild-type copy of CDC28 was replaced by cdc28-as1 was constructed.” for “Yeast Plasmid and Strain Construction:”, “W303 (ura3-1,” for “W30-3 (ura3-a,”, “cdc28-as1 ,” for “cdc28-as1,”, “5′- and” for “5′-and”, “AfII” for “AflII”

[10] = system: cdc28-as1 cells; test: DNA content (flow cytometry) and morphology of yeast cells; assay type: cell-based, Saccharomyces cerevisiae; details: for cell cycle effect (G2/M DNA content, large hyperpolarized buds): asynchronous cells
Method: DNA flow cytometry: Approximately 1×10^7 cells for each sample were fixed in 70% ethanol, resuspended in 50 mM Tris-HCl pH 8.0, briefly sonicated, digested with 2mg/ml RNase for 2 hours at 37° C., and resuspended in 0.2 ml protease solution (5 mg/ml pepsin. 0.5% concentrated HCl ) and digested for 45 minutes at 37° C. DNA was stained with 1μM Sytox Green (Molecular Probes) in 50 mM Tris-HCl pH 7.5 and 20,000 cells from each sample were scanned with a FACScan FACS machine (Becton-Dickinson).
Thus, it appears possible to titrate the level of Cdc28-as1 activity in vivo, allowing the identification of cell cycle events that are differentially sensitive to decreases in the catalytic activity of Cdc28.
When cdc28-as1 cells were synchronized in G1 with the yeast mating pheromone, α-factor factor, and then released into fresh media containing 500 nM 1-NM-PP 1, initiation of budding and DNA synthesis were delayed about 30 to 60 minutes, while accumulation of the mitotic cyclin Clb2 was delayed 60 to 90 minutes. […] Thus, cells treated with low concentrations of the inhibitor are slightly delayed during progression through early stages of the cell cycle, but eventually arrest due to a failure to assemble a mitotic spindle and enter mitosis.
These cells eventually budded after 180 to 240 minutes and arrested with a IC DNA content, large hyperpolarized buds, a single DNA mass in the mother cell, and an interphase astral microtubule array.

[11] = biological target: T3, Cdc28-as1 (F88G Cdc28) (Saccharomyces cerevisiae, UniProt P00546, F88G); test: In vitro sensitivity of Cdc28 kinases to PP1 derivatives (Example 19); assay type: biochemical; details: read-out: IC50, engineered Cdc28
T3 construct: made in house

[12] = system: Fus3-as1 expressing yeast; test: Yeast mating assay for Fus3 function; assay type: cell-based, Saccharomyces cerevisiae; details: 50 μM
[13] = system: wild-type cells; test: Genome-wide transcription, oligonucleotide DNA arrays; assay type: cell-based, Saccharomyces cerevisiae
Description: (§2) Error bars represent standard errors of the means.
(§3) Changes were deemed significant if they were greater than or equal to 2-fold or if the transcript changed present/absent status (as indicated by Affymetrix software) in the following comparisons: for non-specific drug effects: CDC28+1-NM-PP1 vs. CDC28; for cdc28-as1 effects: cdc28-as1 vs. CDC28.

[14] = system: cdc28-as1 cells; test: as above; assay type: cell-based, Saccharomyces cerevisiae
Description: as §2, §3

[15] = system: wild-type Fus3 expressing yeast; test: Yeast mating assay for Fus3 function; assay type: cell-based, Saccharomyces cerevisiae; details: all concentrations up to 50 μM
[16] = system: I338G v-Src, T339G Fyn, T315A Abl, F89G CAMK IIα and F80G CDK2; test: In vitro inhibition, panel of engineered protein kinases; assay type: biochemical
[17] = biological target: T4, Cdc28-as1 · MBP-Clb2 (Saccharomyces cerevisiae, UniProt P00546, F88G); test: 1-NM-PP1 IC50, Histone H1 kinase assay; assay type: biochemical; details: 1 MM ATP
T4 construct: made in house; host or cells: Sf9 insect cells, baculovirus, co-infected with Cak1-HA3 (Cdc28-as1-His6); bacteria (MBP-Clb2)
Method: Phosphate incorporation was determined at each inhibitor concentration by scintillation counting.
Cdc28-as1 is highly sensitive to 1-NM-PP1 in vitro and is a slightly weakened kinase.

[18] = biological target: T5, WT v-Src (Rous sarcoma virus subgroup A, UniProt P00524, DEL77-225); test: biochemical; assay type: biochemical; details: Table 3, wild type; read-out: IC50, vSrc
T5 construct: mutant of the v-Src catalytic domain, (the XD4 fragment) were made as glutathione S-transferase (GST) fusion proteins; made in house; host or cells: E. coli (DH5a), pGEX-KT

[19] = system: cdc28-as1 strain lacking PCL1 and PCL2; test: Budding and DNA content after release from G1; assay type: cell-based, Saccharomyces cerevisiae; details: G1 synchronized, released into 5,000 nM
Method: Pho85, a Cdk that is closely related to Cdc28, has been implicated in the initiation of budding in S. cerevisiae (128, 129). Therefore, the budding observed in cdc28-as1 cells released into 5,000 nM 1-NM-PP1 due to residual Cdc28-as1 activity or due to Pho85 activity was investigated. A cdc28-as1 strain lacking PCL1 and PCL2, which encode the two G1 activating cyclins of Pho85 were constructed. […] It was concluded that Pc11- and Pc12-associated Pho85 activity, and not residual Cdc28 activity, are responsible for the greatly delayed budding observed in cdc28-as1 cells treated with high concentrations of inhibitor.

[20] = G1 synchronized with α-factor, released into 500 nM
[21] = G1 synchronized, released into 5,000 nM

T1 sequence (P00519 whole entry): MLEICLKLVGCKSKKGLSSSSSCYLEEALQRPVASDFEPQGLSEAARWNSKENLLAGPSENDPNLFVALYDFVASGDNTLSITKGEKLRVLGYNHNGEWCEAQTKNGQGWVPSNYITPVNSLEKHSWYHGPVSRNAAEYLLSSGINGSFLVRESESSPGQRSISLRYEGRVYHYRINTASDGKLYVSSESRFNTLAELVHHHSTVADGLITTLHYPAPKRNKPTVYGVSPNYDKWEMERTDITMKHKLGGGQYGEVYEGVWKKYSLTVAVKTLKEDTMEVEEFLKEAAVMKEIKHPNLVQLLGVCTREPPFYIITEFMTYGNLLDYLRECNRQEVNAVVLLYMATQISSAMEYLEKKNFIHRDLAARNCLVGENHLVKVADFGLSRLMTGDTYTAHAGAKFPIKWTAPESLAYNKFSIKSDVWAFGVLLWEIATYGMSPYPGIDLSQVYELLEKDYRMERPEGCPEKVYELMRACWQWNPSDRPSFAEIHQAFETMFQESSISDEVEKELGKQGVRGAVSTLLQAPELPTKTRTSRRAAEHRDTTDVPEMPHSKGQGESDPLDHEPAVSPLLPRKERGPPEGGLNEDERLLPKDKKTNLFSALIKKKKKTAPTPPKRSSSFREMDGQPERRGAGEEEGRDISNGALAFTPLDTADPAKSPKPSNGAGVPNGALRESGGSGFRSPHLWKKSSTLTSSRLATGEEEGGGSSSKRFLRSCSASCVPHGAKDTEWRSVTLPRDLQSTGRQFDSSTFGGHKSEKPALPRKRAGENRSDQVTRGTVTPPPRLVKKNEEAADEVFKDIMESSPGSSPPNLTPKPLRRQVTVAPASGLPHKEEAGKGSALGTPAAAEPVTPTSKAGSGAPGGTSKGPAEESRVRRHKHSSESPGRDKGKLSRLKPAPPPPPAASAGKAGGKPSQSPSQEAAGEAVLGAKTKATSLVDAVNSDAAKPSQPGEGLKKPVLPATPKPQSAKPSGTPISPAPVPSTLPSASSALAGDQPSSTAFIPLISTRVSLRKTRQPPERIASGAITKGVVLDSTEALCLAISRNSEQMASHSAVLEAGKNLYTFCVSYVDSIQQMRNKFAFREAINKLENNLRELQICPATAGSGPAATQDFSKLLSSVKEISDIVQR
T3 sequence (P00546 whole entry F88G): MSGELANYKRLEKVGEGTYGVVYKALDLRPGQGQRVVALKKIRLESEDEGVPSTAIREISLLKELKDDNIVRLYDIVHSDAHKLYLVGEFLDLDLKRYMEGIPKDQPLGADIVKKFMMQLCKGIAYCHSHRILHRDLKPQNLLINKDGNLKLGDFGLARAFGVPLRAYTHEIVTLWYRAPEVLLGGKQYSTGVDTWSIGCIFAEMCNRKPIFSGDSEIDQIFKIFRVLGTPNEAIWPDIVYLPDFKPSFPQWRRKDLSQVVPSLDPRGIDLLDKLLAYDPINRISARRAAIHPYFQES
T3 sequence (P24869 whole entry, further chain): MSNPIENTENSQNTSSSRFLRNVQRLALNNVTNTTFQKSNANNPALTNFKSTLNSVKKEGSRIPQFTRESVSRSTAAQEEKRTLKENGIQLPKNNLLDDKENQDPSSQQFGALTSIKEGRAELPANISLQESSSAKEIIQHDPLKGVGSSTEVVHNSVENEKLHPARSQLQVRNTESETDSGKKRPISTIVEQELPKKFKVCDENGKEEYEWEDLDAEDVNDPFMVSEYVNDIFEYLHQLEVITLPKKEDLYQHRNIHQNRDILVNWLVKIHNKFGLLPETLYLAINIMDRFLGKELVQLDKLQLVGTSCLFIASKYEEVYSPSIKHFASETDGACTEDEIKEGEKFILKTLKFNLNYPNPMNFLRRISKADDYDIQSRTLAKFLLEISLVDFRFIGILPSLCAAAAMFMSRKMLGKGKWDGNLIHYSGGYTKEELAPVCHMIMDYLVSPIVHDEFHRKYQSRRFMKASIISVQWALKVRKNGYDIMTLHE
T4 sequence (P00546 whole entry F88G): as the sequence (P00546 whole entry F88G) above
T4 sequence (P24869 whole entry, further chain): as the sequence (P24869 whole entry, further chain) above

## COC(=O)[C@@]1(O)C[C@H]2O[C@]1(C)n1c3ccccc3c3c4c(c5c6ccccc6n2c5c31)C(=O)NC4 [Compound K252a, (+)-K252a]
[1]
  IC50: ≤ 0.03 µM
[2]
  IC50: ≤ 0.03 µM
[3]
  inhibition of wild-type protein kinases (in words): can efficiently inhibit Src family kinases, cyclin dependent kinases, and calmodulin dependent kinases
[4]
  IC50: ≤ 0.03 µM
[5]
  inhibition of wild-type Abl: not effectively inhibited

## CC(C)(C)n1nc(Cc2cccc3ccccc23)c2c(N)ncnc21 [Compound 6h, 4-amino-1-(tert-butyl)-3-(1′-naphthylmethyl)pyrazolo[3,4-d]pyrimidine]
[6]
  cfu/mL on YPD plates (non-selective cytotoxicity): No significant decrease in cfu/mL on YPD plates
[7]
  IC50: 0.0042 µM
[8]
  proliferation of wild-type cells: unaffected by the inhibitor except at very high concentrations
[8]; same concentrations
  growth of wild-type strains: had no effect on the growth of wild-type strains
[9]
  growth of yeast which express Cdc28-as1: completely ablated
  inhibitor concentration for complete growth arrest: above 500 nM
[9]; in vivo, read-out: inhibitor concentration at which growth is inhibited 50%
  IC50: 0.05 to 0.1 µM
[10]; [20]
  delay of accumulation of the mitotic cyclin Clb2: 60 to 90 min
  delay of initiation of budding and DNA synthesis: 30 to 60 min
[10]; G1 synchronized, released into 500 nM
  terminal arrest phenotype: arrest with moderate Clb2 levels, highly hyperpolarized buds, and a G2M DNA content
[10]; [21]
  arrest phenotype: arrested with a IC DNA content and initially failed to bud
  time after which cells eventually budded: 180 to 240 min
[10]; 50 nM
  cell cycle effect (G2/M DNA content, large hyperpolarized buds): delay
[10]; 500 nM
  cell cycle effect (G2/M DNA content, large hyperpolarized buds): arrest
[10]; asynchronous cells, 5,000 nM
  cell cycle effect: non-uniform arrest that included unbudded GI cells as well as large-budded G2/M cells
[3]; none inhibited below this concentration
  concentration at which wild-type kinases are inhibited: ≥ 1 µM
[11]
  IC50: 0.0039 µM
[12]
  decrease of Fus3-as1 mediated mating: 85 fold
[13]; 500 nM
  effects on wild-type cell physiology: has no significant effects on wild-type cell physiology
[13]; 500 nM, 30 minutes
  number of genes whose transcription changed greater than two-fold: 6 genes
  share of genes whose transcription changed greater than two-fold: 0.1%
[13]; 120 minutes
  number of genes changed: 3 genes
[14]; 500 nM, 120 minutes
  G2/M transcription: causes a drop in G2/M transcription
[14]; 500 nM, two hours
  down-regulated transcripts that are cell cycle-regulated: 60 transcripts
  down-regulated transcripts with peak expression at G2/M: 32 transcripts
  number of genes with […] or greater decreases: 66 genes
  number of genes with […] or greater increases: 38 genes
[14]; two-hour drug exposure
  down-regulation of the Cln-Cdc28 inhibitor Far 1 transcript: 20 fold
[15]
  mating efficiency: no decrease in mating efficiency
[16]
  inhibition of engineered kinases (in words): the most potent inhibitor of every engineered kinase tested
[16]; within a 3 fold range, read-out: IC50 for all of the glycine mutants
  IC50: < 0.01 µM
[17]
  IC50: ~0.003 µM
[18]
  IC50: 28 µM
[19]
  arrest phenotype: arrested with a 1C DNA content and never budded, even after 6 hours
